# From patent publication US4209439A, “Stabilization of vinyl resins” (priority 1977, dated 1980)
# “And” between values parts separate entries of the source, which are not always exact repeats. Equal entries are not always repeated.
# Tests used:
# Assay type in all cases: physicochemical
# [1] = migration of stabiliser from PVC into solutions or solvents simulating foods at 50° C.; conditions: H2O/NaCl (97:3), 0.3
# Protocol: (§1) The technique as regards extraction was the following: using the formula which is given below, a batch of bottles (volume 1 liter, diameter 70 mm, height.perspectiveto.230 mm) was prepared, the said bottles being filled with a liquid simulating the foods. […] The migration of the stabiliser was judged by dosage of the pyridine present in the extractum, using the dosage method which is later described. This pyridine obviously represents the oxidised form of the extracted 1,4-dihydropyridine.
# (§2) The stabilisers are measured out in the form of their oxidation product (pyridine).
# (§3) The oxidation is made quantitative by adding a few drops of iodine to the solution. The latter is then extracted with chloroform and the chloroform is evaporated to a small residual volume. The solution obtained is then subjected to thin-film chromatography, by comparison with solutions of known concentration of the desired pyridines.
# (§4) The sensitivity threshold of this technique is 5 μg/liter.
# For justifying the possibility of using the dihydropyridines (I) having a radical R comprising from 9 to 22 carbon atoms in applications concerned with food packaging, other than those applications relating to mineral waters, the extractability of the dihydropyridines by several solutions or solvents having the following composition, by weight, was investigated:
# (a) water-sodium chloride: 97-3
# (b) water-saccharose: 90-10
# (c) water-sodium chloride-acetic acid: 98.5-0.5-1
# (d) water-citric acid (solution at pH=5): 98-2
# (e) water-acetic acid: 97-3
# (f) water-acetic acid: 90-10
# (h) water-acetic acid: 50-50
# [2] = migration of stabiliser from PVC bottles into water at 50° C.; conditions: water 50° C.
# Protocol: 2.2--Study of the migration
# The migration or the extractability of the stabiliser from the PVC compound under the effect of various liquids (and particularly water) stored in a plastic container is of essential importance for the use of these stabilisers in the field of food packagings.
# as §1
# The investigation was particularly developed for water at 50° C. over a period of 2 months, because it represents the important problem regarding the packaging of mineral waters.
# Formula for the manufacture of bottles
# The S L 2016 is a solution of zinc 2-ethyl hexanoate in a mixture of aromatic hydrocarbons boiling from 158° to 184° C.
# as §2, §3, §4
# [3] = sublimation at 160° C. for 6 hours under nitrogen; conditions: for % of sublimed product: 160° C., 6 hours, nitrogen; for sublimation: of the quantity of product being used
# Protocol: A test sample of about 130 mg of the product to be investigated is introduced into a 100 cc beaker. The latter is placed in a 250 cc reactor. The temperature is kept at 160° C. by means of a thermostatically controlled oil bath for 6 hours, the atmosphere of the reactor being inert (nitrogen) in order to avoid the oxidation of the 1,4-dihydropyridine into pyridine, which is more sublimable.
# For each dihydropyridine derivative which is investigated, the result is expressed as a percentage of sublimed product relatively to the quantity being used.
# [4] = polarographic study of the oxidation potential (Example 30); conditions: acetonitrile, lithium perchlorate; calomel electrode; in V (unit assumed)
# Text: 261. Polarographic study of the oxidation potential […]
# reference electrode: a calomel electrode which contains, as junction liquid, a saturated solution of anhydrous lithium perchlorate working electrode: rotating electrode of vitreous carbon (2500 r.p.m.) counter-electrode: platinum. acetonitrile, having a water content smaller than 0.1% and not presenting any polarographic waves between -2.5 volts and +2.5 volts.
# 0.1 M solution of lithium perchlorate in acetonitrile, treated and preserved on a molecular screen of 4 A. […]
# exploration amplitude: 0 to 2 V exploration speed: 10 mV/sec.
# [5] = polarographic oxidation potential (Example 31); conditions: 0.5 m.mole/liter; methanol/acetic acid; 35° C.
# Protocol: platinum counter-electrode and calomel electrode with filling by a saturated aqueous solution of lithium chloride.
# The measurements were carried out in the following solvent:
# 90 parts of an 0.1 M solution of lithium perchlorate in methanol, 10 parts of a 0.1 M solution of perchloric acid in acetic acid. square voltage superimposed with constant pulses of +10 millivolts, initial potential: 500 millivolts, scanning voltage: 1000 millivolts in the anode direction, oxidation at the vitreous carbon electrode (speed of rotation: 2000 r.p.m.)
structure (smiles),measurement,setting,value
"c1ccc(-c2cc3ccccc3[nH]2)cc1 [2-phenyl indole, reference compound]",Migration,[1]; 1 month,90 µg/L
same,Migration,[1]; 2 months,140 µg/L
same,Migration,"[2]; 0.30 pct, 1 month, listed as Control",100 µg/L and 110 µg/L and 120 µg/L
same,Migration,"[2]; 0.30 pct, 2 months, listed as Control",100 µg/L and 110 µg/L and 130 µg/L
same,Migration,"[2]; 0.30 pct, 10 days, listed as Control",75 µg/L and 70 µg/L and 80 µg/L
same,Migration,"[2]; 0.30 pct, 20 days, listed as Control",90 µg/L and 100 µg/L
same,% of sublimed product,[3],62%
same,sublimation,[3],62%
COc1ccc(O)cc1 [4-Methoxy phenol],Oxidation potential,[4],0.89 ± 0.01
Oc1ccc(O)cc1 [Hydroquinone],Oxidation potential,[4],0.83 ± 0.01
"CCOC(=O)C1=C(C)NC(C)=C(C(=O)OCC)C1 [L.28501, 2,6-Dimethyl-3,5-dicarboethoxy-1,4-dihydropyridine]",Migration,[1]; 1 month,120 µg/L
same,Migration,[1]; 2 months,150 µg/L
same,Migration,"[2]; 0.15 pct, 1 month",100 µg/L
same,Migration,"[2]; 0.15 pct, 2 months",100 µg/L
same,Migration,"[2]; 0.15 pct, 10 days",20 µg/L
same,Migration,"[2]; 0.15 pct, 20 days",50 µg/L
same,Migration,"[2]; 0.30 pct, 1 month",150 µg/L
same,Migration,"[2]; 0.30 pct, 2 months",150 µg/L
same,Migration,"[2]; 0.30 pct, 10 days",90 µg/L
same,Migration,"[2]; 0.30 pct, 20 days",120 µg/L
same,Oxidation potential,[4],0.73 ± 0.01
same,% of sublimed product,[3],82.9%
CCCCCCCCOC(=O)C1=C(C)NC(C)=C(C(=O)OCCCCCCCC)C1 [L.28502],% of sublimed product,[3],7.2%
same,sublimation,[3],7%
CC1=C(C(=O)OC(C)C)CC(C(=O)OC(C)C)=C(C)N1 [L.28506],% of sublimed product,[3],98.1%
CCCOC(=O)C1=C(C)NC(C)=C(C(=O)OCCC)C1 [L.28509],% of sublimed product,[3],79.1%
"CCCCOC(=O)C1=C(C)NC(C)=C(C(=O)OCCCC)C1 [L.28552, 2,6-Dimethyl-3,5-dicarbobutoxy-1,4-dihydropyridine]",Migration,[1]; 1 month,80 µg/L
same,Migration,[1]; 2 months,100 µg/L
same,Migration,"[2]; 0.15 pct, 1 month",90 µg/L
same,Migration,"[2]; 0.15 pct, 2 months",100 µg/L
same,Migration,"[2]; 0.15 pct, 10 days",15 µg/L
same,Migration,"[2]; 0.15 pct, 20 days",40 µg/L
same,Migration,"[2]; 0.30 pct, 1 month",130 µg/L
same,Migration,"[2]; 0.30 pct, 2 months",130 µg/L
same,Migration,"[2]; 0.30 pct, 10 days",80 µg/L
same,Migration,"[2]; 0.30 pct, 20 days",120 µg/L
same,% of sublimed product,[3],39.2%
CCCCCCCCCCOC(=O)C1=C(C)NC(C)=C(C(=O)OCCCCCCCCCC)C1 [L.28591],% of sublimed product,[3],1.7%
"CCCCCCCCCCCCCCCCCCOC(=O)C1=C(C)NC(C)=C(C(=O)OCCCCCCCCCCCCCCCCCC)C1 [L.28599, 2,6-Dimethyl-3,5-dicarbooctadecyloxy-1,4-dihydropyridine]",Migration,[1]; 1 month,< 5 µg/L
same,Migration,[1]; 2 months,< 5 µg/L
same,Migration,"[2]; 0.15 pct, 1 month",< 5 µg/L
same,Migration,"[2]; 0.15 pct, 2 months",< 5 µg/L
same,Migration,"[2]; 0.15 pct, 10 days",< 5 µg/L
same,Migration,"[2]; 0.15 pct, 20 days",< 5 µg/L
same,Migration,"[2]; 0.30 pct, 1 month",< 5 µg/L
same,Migration,"[2]; 0.30 pct, 2 months",< 5 µg/L
same,Migration,"[2]; 0.30 pct, 10 days",< 5 µg/L
same,Migration,"[2]; 0.30 pct, 20 days",< 5 µg/L
same,% of sublimed product,[3],1.2%
CCCCCCCCCCCCCCCCCCCCCCOC(=O)C1=C(C)NC(C)=C(C(=O)OCCCCCCCCCCCCCCCCCCCCCC)C1 [L.28601],% of sublimed product,[3],0.4%
CCCCCCCC/C=C\CCCCCCCCOC(=O)C1=C(C)NC(C)=C(C(=O)OCCCCCCCC/C=C\CCCCCCCC)C1 [L.28602],Oxidation potential,[5],808 millivolts
